Measured values published in patent US7488468B1, “Near infrared fluorescent contrast agent and fluorescence imaging” (Schering AG, priority 1998, dated 2009).

Experiments:
[1] = Partition coefficient (log Po/w) of n-butanol/water; assay type: physicochemical; details: n-butanol/water two-phase system
Text: The fluorescent contrast agent to be used in a living body should be particularly water soluble. […] For easy synthesis, the number of the sulfonic acid groups is not more than 10, preferably not more than 8. The improvement in the water solubility can be determined by measuring partition coefficient of each compound, which for example, may be measured in a two-phase system of butanol/water. More specifically, introduction of 3 or more sulfonic acid groups results in a partition coefficient log Po/w of n-butanol/water of not more than −1.00.

[2] = tested on: mice; experiment: Acute toxicity; assay type: in vivo; details: intravenous injection from tail vein, conscious mice, monitored for 3 days
Description: Reduction of toxicity by the introduction of sulfonic acid group and reduction thereof by conversion into sodium salt were studied.
Each test compound was dissolved in distilled water to give a compound solution. This solution was intravenously injected to the conscious mice from the tail vein. The mice were monitored for 3 days after the administration, and acute toxicity [LD50 (mg/kg body weight)] was estimated.

Q: For `CC1(C)C(=CC=CC2=[N+](CCCS(=O)(=O)[O-])c3ccccc3C2(C)C)N(CCCS(=O)(=O)[O-])c2ccccc21.[Na+]` [NK-1967], which “log Po/w (butanol/water)” value [1] is on record?
A: 0.34

Q: And the LD50 [2]?
A: 20 mg/kg body weight
